Assay results as given in the OPERA property sets (Mansouri et al. 2018).

Details: not given

Row | SMILES | log10 Koc (L/kg) | melting point [°C] | boiling point [°C] | ready biodegradability | log10 vapour pressure (mmHg) | log10 Henry constant (atm·m³/mol) | log10 Koa
1 | Oc1cc(O)c2c(c1)O[C@H](c1ccc(O)c(O)c1)[C@@H](O)C2 | 2.03 | – | – | – | – | – | –
2 | C[N+](C)(C)CCOC(=O)NCCCCCCNC(=O)OCC[N+](C)(C)C.[Br-].[Br-] | – | 175 | – | – | – | – | –
3 | CC=C(Cl)C=O | – | – | 148 | – | – | – | –
4 | CC1CC(=O)CC(C)(C)C1 (stereo not drawn) | – | – | 189 | not readily biodegradable | – | – | –
5 | O=C(O)CN(CCN(CC(=O)O)CC(=O)O)CC(=O)O | – | – | – | not readily biodegradable | -11.8 | – | –
6 | O=C1CCc2ccccc2O1 | – | 25 | 272 | – | – | – | –
7 | COC(=O)[C@]1(C)CCC[C@@]2(C)[C@H]1CC=C1C=C(C(C)C)CC[C@@H]12 | – | – | 362 | – | – | – | –
8 | CCOC(=O)c1c[nH]c(=S)[nH]c1=O | – | 252 | – | – | – | – | –
9 | CC(C)(C)c1cc(O)ccc1O | – | 128 | 273 | – | – | – | –
10 | OCC(CO)(CO)CBr | – | 76 | – | – | – | – | –
11 | CCCC(Br)C(=O)OCC (stereo not drawn) | – | – | 191 | – | – | – | –
12 | CC1NC(C)SC(C)S1 (stereo not drawn) | – | 46 | – | – | – | – | –
13 | O=[N+]([O-])c1cccc2ccccc12 | – | 61 | 304 | – | -3.32 | -5.75 | –
14 | Nc1cccc(F)c1 | – | -5 | 188 | – | – | – | –
15 | CC[C@H]1OC(=O)[C@H](C)[C@@H](O[C@H]2C[C@@](C)(OC)[C@@H](O)[C@H](C)O2)[C@H](C)[C@@H](O[C@@H]2O[C@H](C)C[C@H](N(C)C)[C@H]2O)[C@](C)(O)C[C@@H](C)C(=O)[C@H](C)[C@@H](O)[C@]1(C)O | – | 191 | – | – | – | – | –
16 | NC(=O)OCCCc1ccccc1 | – | 102 | – | – | – | – | –
17 | COc1cc2c(cc1O)CCN[C@@H]2C | – | 222 | – | – | – | – | –
18 | Cc1cc(O)cc(C)c1Cl | – | 115 | 246 | – | – | – | –
19 | CCc1ccccc1Nc1ccccc1CC | – | 29 | – | – | – | – | –
20 | Cc1ccc([N+](=O)[O-])cc1C | – | 30.5 | 251 | – | -2.44 | – | –
21 | COc1cc(-c2ccc(N)c(OC)c2)ccc1N | – | 137 | 356 | not readily biodegradable | – | – | –
22 | CCC(C)C(C)C(C)(C)C (stereo not drawn) | – | – | 157 | – | – | – | –
23 | COc1cc(CC#N)ccc1O | – | 56.5 | – | – | – | – | –
24 | Cc1cc(C)c(O)c(C)c1C | – | 80.5 | 240 | – | – | – | –
25 | Cc1ccc2c(c1Cl)C(=O)c1ccccc1C2=O | – | 170 | – | – | – | – | –

Row | SMILES | log10 Koc (L/kg) | melting point [°C] | boiling point [°C] | ready biodegradability | log10 vapour pressure (mmHg) | log10 Henry constant (atm·m³/mol) | log10 Koa
26 | SC(c1ccccc1)(c1ccccc1)c1ccccc1 | – | 105 | – | – | – | – | –
27 | CCC(=O)OCc1ccccc1 | – | – | 220 | – | – | – | –
28 | CCCCCCCCCCCCOP(=O)(O)O | – | – | – | readily biodegradable | – | – | –
29 | CCC(C)Oc1ccccc1 (stereo not drawn) | – | – | 194 | – | – | – | –
30 | C[C@H]1C[C@@H]2[C@H]([C@@H](O)C[C@@]3(C)[C@H]2CC[C@]3(O)C(=O)CO)[C@@]2(C)C=CC(=O)C=C12 | – | 232 | – | – | – | – | –
31 | O=C(Nc1ccccc1)c1ccccc1O | – | 136 | – | – | – | – | –
32 | O=C(O)CC(=O)O | – | – | – | readily biodegradable | – | – | –
33 | CCOC | – | -113 | 7.4 | – | 3.17 | – | –
34 | C=CCCCO | – | – | 141 | – | – | – | –
35 | CC(C)(O)C(Cl)(Cl)Cl | – | 97 | 167 | not readily biodegradable | – | – | –
36 | C[Si](Cn1cncn1)(c1ccc(F)cc1)c1ccc(F)cc1 | 3.22 | 54 | – | – | – | – | –
37 | CC(C)C(Nc1ccc(C(F)(F)F)cc1Cl)C(=O)OC(C#N)c1cccc(Oc2ccccc2)c1 (stereo not drawn) | 5.71 | – | – | – | – | – | –
38 | COc1cccc(C(=O)O)c1 | – | 107 | – | readily biodegradable | – | – | –
39 | CCC(C)OC=O (stereo not drawn) | – | – | 97 | – | – | – | –
40 | CC(C)CCBr | – | -112 | 120 | – | 1.54 | -1.46 | –
41 | c1cc2c3c(ccc4c3c1CCC4)CCC2 | – | 133 | – | – | – | – | –
42 | Cl.Nc1ccc(N=Nc2ccccc2)c(N)c1 | – | 118 | – | – | – | – | –
43 | CC(C)=CC1C(C(=O)OCc2cccc(Oc3ccccc3)c2)C1(C)C (stereo not drawn) | – | – | – | – | -6.84 | – | –
44 | CC1(C)[C@@H]2CC[C@]1(C)[C@H](O)C2 | – | – | – | – | -1.3 | – | –
45 | Clc1ccc(C(c2ccc(Cl)cc2)C(Cl)Cl)cc1 | 4.21 | 110 | 350 | – | -5.87 | -5.18 | 10.1
46 | O=C(O)Cc1ccc2ccccc2c1 | – | 142 | – | – | – | – | –
47 | Cc1cc(OC(=O)N(C)C)n(C(C)C)n1 | – | – | – | – | -3 | – | –
48 | CC(C)C1CC1 | – | -113 | 58.3 | – | – | – | –
49 | ClC(Cl)I | – | – | 132 | – | – | – | –
50 | C=Cc1ccccc1Br | – | -52.5 | 209 | – | – | – | –

Row | SMILES | log10 Koc (L/kg) | melting point [°C] | boiling point [°C] | ready biodegradability | log10 vapour pressure (mmHg) | log10 Henry constant (atm·m³/mol) | log10 Koa
51 | CCCC(=O)CCC(C)C | – | – | 178 | – | – | – | –
52 | CCCCCCCCCCC(=O)O | – | 28.6 | 280 | readily biodegradable | -2.42 | – | –
53 | Nc1cccc(Cl)c1C(=O)O | – | 159 | – | – | – | – | –
54 | COc1cc(C(Cl)(Cl)Cl)cc(Cl)n1 | 3.48 | – | – | – | – | – | –
55 | CC=Cc1ccc2c(c1)OCO2 | – | 8.2 | 253 | – | – | – | –
56 | CCN1CCN(C(=O)N[C@@H](C(=O)N[C@@H]2C(=O)N3C(C(=O)O)=C(CSc4nnnn4C)CS[C@H]23)c2ccc(O)cc2)C(=O)C1=O | – | 169 | – | – | – | – | –
57 | CCOC(=O)C#CC(=O)OCC | – | 1.5 | – | – | – | – | –
58 | CC(C)(O)CCl | – | -20 | 128 | – | – | – | –
59 | CCOP(=S)(OCC)OP(=S)(OCC)OCC | – | – | – | – | -3.98 | – | –
60 | CCCCCCCCCCCC(=O)OCCOCCO | – | 17.5 | – | – | – | – | –
61 | CCCCN(CCN(CCCC)C(=O)N1CCOCC1)C(=O)N1CCOCC1 | – | 41.5 | – | – | – | – | –
62 | CCOC(=O)CCC(=O)OC | – | – | 208 | – | – | – | –
63 | CCOc1cccc(-c2ccccc2)c1 | – | 35 | 305 | – | – | – | –
64 | O=C1NC(=O)c2ccccc21 | – | 238 | – | readily biodegradable | – | – | –
65 | CCNC1=NC(=O)C(c2ccccc2)O1 (stereo not drawn) | – | 148 | – | – | – | – | –
66 | O=COCC=Cc1ccccc1 | – | 0 | 252 | – | – | – | –
67 | Clc1ccc(-c2ccccc2Cl)cc1Cl | – | – | – | – | -3.99 | -3.8 | –
68 | c1ccc2c(c1)ccc1cccnc12 | – | 52 | 339 | – | -3.66 | – | –
69 | CCC(Br)(CC)C(N)=O | – | 67 | – | – | – | – | –
70 | O=C1c2ccccc2C(=O)c2cc(O)ccc21 | – | 306 | – | – | -10.2 | – | –
71 | Cc1ccc2occc2c1 | – | – | 198 | – | – | – | –
72 | CC(C)OC(=O)C1(S(=O)(=O)c2ccc([N+](=O)[O-])cc2)CCCCC1 | – | 110 | – | – | – | – | –
73 | O=c1c(O)c(-c2ccccc2)oc2cc(O)cc(O)c12 | – | 214 | – | – | – | – | –
74 | Clc1cc(Cl)cc(Br)c1 | – | 83 | 232 | – | – | – | –
75 | Clc1ccc(C(c2ccc(Cl)cc2)C(Cl)(Cl)Cl)cc1 | 5.31 | 108 | – | not readily biodegradable | -6.8 | -5.08 | 9.82

Row | SMILES | log10 Koc (L/kg) | melting point [°C] | boiling point [°C] | ready biodegradability | log10 vapour pressure (mmHg) | log10 Henry constant (atm·m³/mol) | log10 Koa
76 | CCCCCOCC | – | – | 118 | – | – | – | –
77 | CCCSP(=O)(OCC)SCCC | 1.85 | -13 | – | – | -3.42 | – | –
78 | CC(=O)OCCCl | – | – | 145 | – | – | – | –
79 | O=C(O)c1ccc2c(c1)C(=O)c1ccccc1-2 | – | 341 | – | – | – | – | –
80 | FC(Cl)(Cl)CCl | – | -140 | 88 | – | – | – | –
81 | CC(=O)Oc1cc(C)ccc1C | – | – | 237 | – | – | – | –
82 | CCCCCCCCl | – | -69.5 | 159 | – | 0.451 | – | –
83 | O=C1C=CC(=O)C(c2ccccc2)=C1 | – | 114 | – | – | – | – | –
84 | Cc1ccc2ncccc2c1 | – | -22 | 259 | – | -2.19 | – | –
85 | CCCCCCCCCCCCCC#N | – | 19 | – | – | – | – | –
86 | O=Cc1c[nH]c2ccccc12 | – | 196 | – | – | – | – | –
87 | Cc1ccc[nH]1 | – | -35.6 | 147 | – | – | – | –
88 | CC(c1ccccc1)c1ccccc1O (stereo not drawn) | – | – | – | not readily biodegradable | – | – | –
89 | COP(=S)(OC)Oc1ccc([N+](=O)[O-])cc1 | 3 | 35.5 | – | – | -5.46 | -7 | –
90 | COC(=O)c1ccc2cc(C(=O)OC)ccc2c1 | – | – | – | not readily biodegradable | – | – | –
91 | CCc1cc(C)nc(C)c1 | – | 97 | 188 | – | – | – | –
92 | CN(C)C(=O)c1ccccc1 | 1.6 | 44 | – | – | – | – | –
93 | CCN(CC)CC(=O)OCC(=O)[C@@]1(O)CC[C@H]2[C@@H]3CCC4=CC(=O)CC[C@]4(C)[C@H]3[C@@H](O)C[C@@]21C | – | 162 | – | – | – | – | –
94 | CC(C)C[N+](=O)[O-] | – | -76.8 | 140 | – | 0.838 | – | –
95 | CCCCCCCCCCCCCCCCCCCCCCCCCC(=O)OC | – | 63.8 | – | – | – | – | –
96 | Cc1ccncc1C | – | -11 | 179 | – | 0.092 | -5.43 | –
97 | CC[N+](C)(C)CCOC(=O)CCC(=O)OCC[N+](C)(C)CC.[Br-].[Br-] | – | 158 | – | – | – | – | –
98 | Clc1cc2c(Cl)c(Cl)c(Cl)c(Cl)c2cc1Cl | – | – | – | – | -6.46 | – | 9.58

Same assay, conditions: fish

Row | SMILES | log10 BCF | log10 biotransformation half-life (days)
99 | CC(C)(O)C(Cl)(Cl)Cl | 0.23 | –
100 | c1cc2c3c(ccc4c3c1CCC4)CCC2 | – | 0.42
101 | Clc1ccc(C(c2ccc(Cl)cc2)C(Cl)Cl)cc1 | – | 2.44
102 | Clc1ccc(C(c2ccc(Cl)cc2)C(Cl)(Cl)Cl)cc1 | 4.29 | 1.93
103 | NC(=O)c1c(Cl)c(Cl)c(Cl)c(Cl)c1C(=O)O | 0.49 | –
104 | COP(=S)(OC)Oc1ccc([N+](=O)[O-])cc1 | 1.93 | 0.55
